From patent publication US20140155406A1, “4-IMIDAZOPYRIDAZIN-1-YL-BENZAMIDES AND 4-IMIDAZOTRIAZIN-1-YL-BENZAMIDES BTK INHIBITORS” (priority 2011, published 2014)

Experiments:
Btk enzyme (His-Btk) = target: T1, Btk enzyme (His-Btk) (Homo sapiens, UniProt Q06187); experiment: Btk enzyme activity, IMAP fluorescence polarization assay; assay type: biochemical; conditions: 60 min pre-incubation, 5 μM ATP (Km)
T1 construct: His; purchased Millipore 14-552
Description: Inhibition of kinase activity can be measured using the Immobilized Metal Assay for Phosphochemicals (IMAP) assay. IMAP is a homogeneous fluorescence polarization (FP) assay based on affinity capture of phosphorylated peptide substrates. IMAP uses fluorescein-labeled peptide substrates that, upon phosphorylation by a protein kinase, bind to so-called IMAP nanoparticles, which are derivatized with trivalent metal complexes. Binding causes a change in the rate of the molecular motion of the peptide, and results in an increase in the FP value observed for the fluorescein label attached to the substrate peptide (Gaudet et al. A homogeneous fluorescence polarization assay adaptable for a range of protein serine/threonine and tyrosine kinases. J. Biomol. Screen (2003) 8, 164-175).
Btk enzyme activity is measured using the IMAP (immobilized metal ion affinity-based fluorescence polarization) assay as outlined below.
Btk enzyme (His-Btk (Millipore catalog#14-552), is diluted to 0.4 U/mL in KR buffer (10 mM Tris-HCl, 10 mM MgCl2, 0.01% Tween-20, 0.05% NaN3, 1 mM DTT, 2 mM MnCl2, pH 7.2).
Serial dilution log 10 from 2 mM to 63.2 nM of test compounds are made in 100% DMSO. The dilutions in DMSO are then diluted 50-fold in KR-buffer. Final compound concentration range in the assay from 10 μM to 0.316 nM.
5 μL/well of test compound in KR buffer (final DMSO concentration in the assay is 1%) is mixed with 5 μl/well of 0.4 U/mL Btk enzyme (final concentration in the assay is 0.1 U/mL). Test compounds and Btk enzyme are pre-incubated 60 minutes at room temperature, before adding 5 μL/well of 200 nM Fluorescin labeled substrate peptide (Blk/Lyntide substrate, e.g. #R7188/#R7233, Molecular Devices) in KR-buffer. Final peptide substrate concentration in assay is 50 nM. The kinase assay is started by adding 5 μL/well of 20 μM ATP in KR-buffer (final ATP concentration is 5 μM ATP, Km ATP in Btk IMAP assay). Following incubation for 2 h at room temperature the enzyme reaction is stopped by adding 40 μL/well IMAP Progressive Binding Solution (according to suppliers (Molecular Devices) protocol using 75% 1× buffer A and 25% 1× buffer B with 1:600 Progressive Binding Solution). After 60 min incubation at room temperature in the dark the FP signal is read. Fluorescence at 535 nm is measured using parallel and perpendicular filters to determine differences in rotation due to binding of the phosphorylated substrate peptide to the beads. Values are calculated as percentage of the difference in readout (ΔmPi) of the controls with and without ATP. EC50 values are determined by curve fitting of the experimental results using Activity Base.

FynT enzyme = target: T2, FynT enzyme (Homo sapiens, UniProt P06241); experiment: FynT enzyme activity, IMAP fluorescence polarization assay; assay type: biochemical; conditions: 60 min pre-incubation, 0.2 μM ATP (Km)
T2 construct: purchased Biomol SE-287
T2 sequence (P06241 1-534 isoform P06241-2): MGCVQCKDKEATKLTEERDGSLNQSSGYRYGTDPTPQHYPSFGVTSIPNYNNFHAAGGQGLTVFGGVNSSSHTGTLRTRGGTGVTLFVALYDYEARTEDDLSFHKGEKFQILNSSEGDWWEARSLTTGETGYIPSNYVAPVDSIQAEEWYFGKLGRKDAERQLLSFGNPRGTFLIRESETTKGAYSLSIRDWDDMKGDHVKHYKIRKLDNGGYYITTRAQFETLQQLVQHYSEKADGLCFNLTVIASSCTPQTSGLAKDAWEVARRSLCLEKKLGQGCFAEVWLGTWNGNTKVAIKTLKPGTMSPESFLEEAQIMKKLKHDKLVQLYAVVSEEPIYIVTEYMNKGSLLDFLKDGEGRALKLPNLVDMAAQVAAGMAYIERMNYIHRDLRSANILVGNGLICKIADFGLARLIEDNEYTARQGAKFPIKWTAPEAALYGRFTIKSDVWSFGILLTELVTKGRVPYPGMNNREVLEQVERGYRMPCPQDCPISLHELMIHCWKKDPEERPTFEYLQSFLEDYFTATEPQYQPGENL
Experimental: FynT enzyme activity is measured using the IMAP (immobilized metal ion affinity-based fluorescence polarization) assay as outlined below.
FynT enzyme (Biomol catalog# SE-287), is diluted to 0.5 μg/mL in KR buffer (10 mM Tris-HCl, 10 mM MgCl2, 0.01% Tween-20, 0.05% NaN3, 1 mM DTT, 2 mM MnCl2, pH 7.2). Serial dilution log 10 from 2 mM to 63.2 nM of test compounds are made in 100% DMSO. The dilutions in DMSO are then diluted 50-fold in KR-buffer of which 5 μl is used in the assay, leading to a final compound concentration range in the assay from 10 μM to 0.316 nM. 5 μL/well of test compound in KR buffer (final DMSO concentration in the assay is 1%) is mixed with 5 μl/well of 0.5 μg/mL FynT enzyme (final concentration in the assay is 125 ng/mL). Test compounds and FynT enzyme are pre-incubated 60 minutes at room temperature, before adding 5 μL/well of 400 nM Fluorescin labeled substrate peptide (p34cdc2 substrate peptide, e.g. #R7157/#R7172, Molecular Devices) in KR-buffer. Final peptide substrate concentration in assay is 100 nM. The kinase assay is started by adding 5 μL/well of 0.8 μM ATP in KR-buffer (final ATP concentration is 0.2 μM ATP, Km ATP in FynT IMAP assay). Following incubation for 2 h at room temperature the enzyme reaction is stopped by adding 40 μL/well IMAP Progressive Binding Solution (according to suppliers (Molecular Devices) protocol using 75% 1× buffer A and 25% 1× buffer B with 1:600 Progressive Binding Solution). After 60 min incubation at room temperature in the dark the FP signal is read. Fluorescence at 535 nm is measured using parallel and perpendicular filters to determine differences in rotation due to binding of the phosphorylated substrate peptide to the beads. Values are calculated as percentage of the difference in readout (ΔmPi) of the controls with and without ATP. EC50 values are determined by curve fitting of the experimental results using Activity Base.

T1 sequence (Q06187 whole entry): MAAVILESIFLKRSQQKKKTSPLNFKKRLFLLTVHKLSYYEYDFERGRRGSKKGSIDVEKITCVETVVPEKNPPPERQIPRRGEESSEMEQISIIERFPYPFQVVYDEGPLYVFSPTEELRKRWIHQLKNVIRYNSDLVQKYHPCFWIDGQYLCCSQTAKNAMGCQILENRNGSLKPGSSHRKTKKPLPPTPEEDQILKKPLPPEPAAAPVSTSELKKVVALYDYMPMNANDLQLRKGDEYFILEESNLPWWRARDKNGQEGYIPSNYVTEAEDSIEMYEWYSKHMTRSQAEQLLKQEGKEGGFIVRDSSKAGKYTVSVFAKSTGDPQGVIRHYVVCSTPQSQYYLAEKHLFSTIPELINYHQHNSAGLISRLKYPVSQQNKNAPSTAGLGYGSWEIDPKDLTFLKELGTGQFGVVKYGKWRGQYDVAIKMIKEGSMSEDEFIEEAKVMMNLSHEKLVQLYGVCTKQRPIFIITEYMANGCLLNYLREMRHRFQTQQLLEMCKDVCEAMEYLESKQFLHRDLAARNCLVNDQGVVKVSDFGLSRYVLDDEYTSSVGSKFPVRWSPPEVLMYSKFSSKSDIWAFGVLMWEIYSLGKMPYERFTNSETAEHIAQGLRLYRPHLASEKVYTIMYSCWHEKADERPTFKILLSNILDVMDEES

In the case of `CCCc1ccnc(NC(=O)c2ccc(-c3nc([C@H](C)NC(=O)/C=C/COC)n4ccnc(C)c34)cc2)c1` [Example 36, (S,E)-4-(3-(1-(4-methoxybut-2-enamido)ethyl)-8-methylimidazo[1,5-a]pyrazin-1-yl)-N-(4-propylpyridin-2-yl)benzamide], the EC50 (Btk enzyme (His-Btk); bin bounds given in nM) is reported as under 10 nM and the EC50 (FynT enzyme) is reported as at least 1 µM.

With `Cc1nccn2c([C@@H]3CCCN3C(=O)/C=C/CN3CCCC3)nc(-c3ccc(C(=O)Nc4ccccn4)cc3)c12` [Example 25, (S,E)-4-(8-methyl-3-(1-(4-(pyrrolidin-1-yl)but-2-enoyl)pyrrolidin-2-yl)imidazo[1,5-a]pyrazin-1-yl)-N-(pyridin-2-yl)benzamide] the EC50 (Btk enzyme (His-Btk); bin bounds given in nM) was at least 100 nM, the EC50 (Btk enzyme (His-Btk); bounds given in μM) was under 1000 nM and the EC50 (FynT enzyme) was at least 1 µM.

For `CCCc1ccnc(NC(=O)c2ccc(-c3nc([C@H](C)N(C)C(=O)/C=C/CN(C)C)n4ccnc(C)c34)cc2)c1` [Example 18, (S,E)-4-(3-(1-(4-(dimethylamino)-N-methylbut-2-enamido)ethyl)-8-methylimidazo[1,5-a]pyrazin-1-yl)-N-(4-propylpyridin-2-yl)benzamide], the EC50 (Btk enzyme (His-Btk); bin bounds given in nM) was under 10 nM and the EC50 (FynT enzyme) was at least 1 µM.

Work on `CCCc1ccnc(NC(=O)c2ccc(-c3nc([C@H](C)NC(=O)/C=C/CN(C)C)n4ccnc(C)c34)cc2)c1` [Example 28, (S,E)-4-(3-(1-(4-(dimethylamino)but-2-enamido)ethyl)-8-methylimidazo[1,5-a]pyrazin-1-yl)-N-(4-propylpyridin-2-yl)benzamide] yielded an EC50 (Btk enzyme (His-Btk); bin bounds given in nM) of under 10 nM and an EC50 (FynT enzyme) of at least 1 µM.

`Cc1nccn2c([C@@H]3CCCCN3C(=O)/C=C/CN3CCCC3)nc(-c3ccc(C(=O)Nc4cc(C(F)(F)F)ccn4)cc3)c12` [Example 21, (S,E)-4-(8-methyl-3-(1-(4-(pyrrolidin-1-yl)but-2-enoyl)piperidin-2-yl)imidazo[1,5-a]pyrazin-1-yl)-N-(4-(trifluoromethyl)pyridin-2-yl)benzamide] was tested, and the EC50 (Btk enzyme (His-Btk); bin bounds given in nM) was under 10 nM and the EC50 (FynT enzyme) was at least 1 µM.

`C=CC(=O)N1CCC[C@H]1c1nc(-c2ccc(C(=O)Nc3cc(C#N)ccn3)cc2)c2c(C)nccn12` [Example 13, (S)-4-(3-(1-Acryloylpyrrolidin-2-yl)-8-methylimidazo[1,5-a]pyrazin-1-yl)-N-(4-cyanopyridin-2-yl)benzamide] gave an EC50 (Btk enzyme (His-Btk); bin bounds given in nM) of under 10 nM and an EC50 (FynT enzyme) of at least 1 µM.

`C=CC(=O)N[C@@H](C)c1nc(-c2ccc(C(=O)Nc3cc(CCC)ccn3)cc2)c2c(C)nccn12` [Example 23, (S)-4-(3-(1-acrylamidoethyl)-8-methylimidazo[1,5-a]pyrazin-1-yl)-N-(4-propylpyridin-2-yl)benzamide] was tested, and the EC50 (Btk enzyme (His-Btk); bin bounds given in nM) was under 10 nM and the EC50 (FynT enzyme) was at least 1 µM.

Work on `C=CC(=O)N1CCC[C@H]1c1nc(-c2ccc(C(=O)Nc3cc(C(F)(F)F)ccn3)cc2)c2c(C)nccn12` [Example 10, (S)-4-(3-(1-Acryloylpyrrolidin-2-yl)-8-methylimidazo[1,5-a]pyrazin-1-yl)-N-(4-(trifluoromethyl)pyridin-2-yl)benzamide] yielded an EC50 (Btk enzyme (His-Btk); bin bounds given in nM) of under 10 nM and an EC50 (FynT enzyme) of at least 1 µM.

With `CC#CC(=O)N[C@@H](C)c1nc(-c2ccc(C(=O)Nc3cc(CCC)ccn3)cc2)c2c(C)nccn12` [Example 38, (S)-4-(3-(1-but-2-ynamidoethyl)-8-methylimidazo[1,5-a]pyrazin-1-yl)-N-(4-propylpyridin-2-yl)benzamide] the EC50 (Btk enzyme (His-Btk); bin bounds given in nM) was under 10 nM and the EC50 (FynT enzyme) was at least 1 µM.

With `C=CS(=O)(=O)N1CCCC[C@H]1c1nc(-c2ccc(C(=O)Nc3cc(CCC)ccn3)cc2)c2c(C)nccn12` [Example 4, (S)-4-(8-Methyl-3-(1-(vinylsulfonyl)piperidin-2-yl)imidazo[1,5-a]pyrazin-1-yl)-N-(4-propylpyridin-2-yl)benzamide] the EC50 (Btk enzyme (His-Btk); bin bounds given in nM) was under 10 nM and the EC50 (FynT enzyme) was at least 1 µM.

With `C=CC(=O)N[C@@H](C)c1nc(-c2ccc(C(=O)Nc3cc(C(F)(F)F)ccn3)cc2)c2c(C)nccn12` [Example 8, (S)-4-(3-(1-Acrylamidoethyl)-8-methylimidazo[1,5-a]pyrazin-1-yl)-N-(4-(trifluoromethyl)pyridin-2-yl)benzamide] the EC50 (Btk enzyme (His-Btk); bin bounds given in nM) was under 10 nM and the EC50 (FynT enzyme) was at least 1 µM.

With `CC#CC(=O)N[C@@H](C)c1nc(-c2ccc(C(=O)Nc3cc(C(F)(F)F)ccn3)cc2)c2c(C)nccn12` [Example 7, (S)-4-(3-(1-But-2-ynamidoethyl)-8-methylimidazo[1,5-a]pyrazin-1-yl)-N-(4-(trifluoromethyl)pyridin-2-yl)benzamide] the EC50 (Btk enzyme (His-Btk); bin bounds given in nM) was under 10 nM and the EC50 (FynT enzyme) was at least 1 µM.

With `CC#CC(=O)N1CCC[C@H]1c1nc(-c2ccc(C(=O)Nc3cc(C)ccn3)cc2)c2c(C)nccn12` [Example 15, (S)-4-(3-(1-but-2-ynoylpyrrolidin-2-yl)-8-methylimidazo[1,5-a]pyrazin-1-yl)-N-(4-methylpyridin-2-yl)benzamide] the EC50 (Btk enzyme (His-Btk); bin bounds given in nM) was at least 100 nM, the EC50 (Btk enzyme (His-Btk); bounds given in μM) was under 1000 nM and the EC50 (FynT enzyme) was at least 1 µM.

Compound `Cc1nccn2c([C@@H]3CCCCN3C(=O)/C=C/CN(C)C)nc(-c3ccc(C(=O)Nc4cc(C(F)(F)F)ccn4)cc3)c12` [Example 37, (S,E)-4-(3-(1-(4-(dimethylamino)but-2-enoyl)piperidin-2-yl)-8-methylimidazo[1,5-a]pyrazin-1-yl)-N-(4-(trifluoromethyl)pyridin-2-yl)benzamide] has an EC50 (Btk enzyme (His-Btk); bin bounds given in nM) of under 10 nM and an EC50 (FynT enzyme) of at least 1 µM.

Compound `CCCc1ccnc(NC(=O)c2ccc(-c3nc([C@@H]4CCCCN4C(=O)/C=C/CN(C)C)n4ccnc(C)c34)cc2)c1` [Example 3, (S,E)-4-(3-(1-(4-(Dimethylamino)but-2-enoyl)piperidin-2-yl)-8-methylimidazo[1,5-a]pyrazin-1-yl)-N-(4-propylpyridin-2-yl)benzamide] has an EC50 (Btk enzyme (His-Btk); bin bounds given in nM) of under 10 nM and an EC50 (FynT enzyme) of at least 1 µM.

For `CC#CC(=O)N1CCCC[C@H]1c1nc(-c2ccc(C(=O)Nc3cc(CCC)ccn3)cc2)c2c(C)nccn12` [Example 22, (S)-4-(3-(1-but-2-ynoylpiperidin-2-yl)-8-methylimidazo[1,5-a]pyrazin-1-yl)-N-(4-propylpyridin-2-yl)benzamide], the EC50 (Btk enzyme (His-Btk); bin bounds given in nM) was under 10 nM and the EC50 (FynT enzyme) was at least 1 µM.

`C=CC(=O)N1CCCC[C@H]1c1nc(-c2ccc(C(=O)Nc3cc(C(F)(F)F)ccn3)cc2)c2c(C)nccn12` [Example 27, (S)-4-(3-(1-acryloylpiperidin-2-yl)-8-methylimidazo[1,5-a]pyrazin-1-yl)-N-(4-(trifluoromethyl)pyridin-2-yl)benzamide] gave an EC50 (Btk enzyme (His-Btk); bin bounds given in nM) of under 10 nM and an EC50 (FynT enzyme) of at least 1 µM.

`C=CC(=O)N1CCCC[C@H]1c1nc(-c2ccc(C(=O)Nc3cc(CCC)ccn3)cc2)c2c(C)nccn12` [Example 2, (S)-4-(3-(1-Acryloylpiperidin-2-yl)-8-methylimidazo[1,5-a]pyrazin-1-yl)-N-(4-propylpyridin-2-yl)benzamide] gave an EC50 (Btk enzyme (His-Btk); bin bounds given in nM) of under 10 nM and an EC50 (FynT enzyme) of at least 1 µM.

With `CC#CC(=O)N(C)[C@@H](C)c1nc(-c2ccc(C(=O)Nc3cc(CCC)ccn3)cc2)c2c(C)nccn12` [Example 24, (S)-4-(8-methyl-3-(1-(N-methylbut-2-ynamido)ethyl)imidazo[1,5-a]pyrazin-1-yl)-N-(4-propylpyridin-2-yl)benzamide] the EC50 (Btk enzyme (His-Btk); bin bounds given in nM) was under 10 nM and the EC50 (FynT enzyme) was at least 1 µM.
